Assay results published in patent US11371055B2, “Herbicide resistance genes” (CORTEVA AGRISCIENCE LLC, priority 2005, dated 2022).
Marks after values point to notes of the source that are not given here.

Tests used:
[1] = tested on: 2P782 (Roundup Ready Control) corn; assay: Herbicide tolerance of 2P782 Roundup Ready control corn in the F1 stack test; type: in vivo, Zea mays; details: 1120 g ae/ha 2,4-D DMA
Excerpt: AAD-12 (v1) (pDAB4101) and elite Roundup Ready inbred (BE1146RR) were reciprocally crossed and F1 seed was collected. The seed from two F1 lines were planted and treated with 70 g ae/ha imazethapyr at the V2 stage to eliminate nulls. To the surviving plants, reps were separated and either treated with 1120 g ae/ha 2,4-D DMA+70 g ae/ha imazethapyr (to confirm presence of AHAS gene) or 1120 g ae/ha 2,4-D DMA+1680 g ae/ha glyphosate (to confirm the presence of the Round Up Ready gene) in a track sprayer calibrated to 187 L/ha. Plants were graded 3 and 16 DAT.

AAD-12 (v2) [2] = biological target: T1, AAD-12 (v2) (Delftia acidovorans, UniProt P83309); assay: Colorimetric phenol detection assay of AAD-12 activity; type: biochemical; details: for activity of AAD-12 (v2) on substrate (absorbance at 510 nm, FIG. 3): 4.4 μg AAD-12 (v2), 0.5 mM substrate, 5 minutes
T1 construct: made in house; host or cells: Pseudomonas fluorescens strain MB324 (construct pDAB739)
Description: Enzyme activity was measured by colorimetric detection of the product phenol using a protocol modified from that of Fukumori and Hausinger (1993) (J. Biol. Chem. 268: 24311-24317) to enable deployment in a 96-well microplate format. The colorimetric assay has been described for use in measuring the activity of dioxygenases cleaving 2,4-D and dichlorprop to release the product 2,4-dichlorophenol. The color yield from several phenols was compared to that of 2,4-dichlorophenol using the detection method previously described to ascertain which phenol products could be readily detected. […] Pyridinols derived from fluroxypyr and triclopyr produced no significant color. The color yield of 2,4-dichlorophenol was linear and proportional to the concentration of phenol in the assay up to ˜500 μM.
Assays were initiated by addition of the aryloxyalkanoate substrate, enzyme or α-ketoglutarate at time zero. After 5 minutes of incubation at 25° C., the reaction was terminated by addition of 30 μl of a 1:1:1 mix of 50 mM Na EDTA; pH 10 buffer (3.09 g boric acid+3.73 g KCl+44 ml 1 N KOH) and 0.2% 4-aminoantipyrine. Then 10 μl 0.8% potassium ferricyanide was added and after 5 or 10 min, the absorbance at 510 nm was recorded in a spectrophotometric microplate reader. Blanks contained all reagents except for enzyme to account for the occasional slight contamination of some of the substrates by small amounts of phenols.
The results are shown in FIG. 3, which illustrates activity of AAD-12 (v2) on 2,4-D and enantiomers of dichlorprop. 4.4 μg AAD-12 (v2) was incubated with 0.5 mM substrate (1 mM for (R,S)-dichlorprop) and the reaction initiated by addition of α-ketoglutarate. After 5 minutes, the reaction was quenched, and the absorbance at 510 nm determined after addition of colorimetric detection reagents. The background value without enzyme was subtracted.

[3] = tested on: cotton cotyledonary segments; type: cell-based
Description: A dose response study was initiated to test multiple auxin alternatives as a substitute for the use of 2,4-D as a growth regulator in cotton. The alternative auxin tested were 2,4-dichlorprop, dicamba, and picloram. These compounds were tested at 0.2, 2.0, and 20.0 uM concentrations respectively. 2,4-D was used as the control treatment at 0.02 uM concentration. The medium used is the base medium for cotton callus induction (Example 12). Beyond the initial phase of culture, auxin is removed from the medium to prod the tissue toward the regeneration process.

T1 AAD-12 (v1) tobacco = assay: Elevated 2,4-D DMA rates in greenhouse tobacco, AAD-12; type: in vivo, Nicotiana tabacum
Excerpt: T1 AAD-12 (v1) plants from an event segregating 3R:1S when selected with 560 g ai/ha Liberty using the same protocol as previously described. T1 AAD-1 (v3) seed was also planted for transformed tobacco controls (see PCT/US2005/014737). Untransformed KY160 was served as the sensitive control. Plants were sprayed using a track sprayer set to 187 L/ha at 140, 560, 2240, 8960, and 35840 g ae/ha 2,4-D DMA and rated 3 and 14 DAT.

[4] = tested on: Segregating T2 AAD-12 (v1) plants (pDAB724.01.1.20); assay: Foliar-applied auxinic herbicides on T2 Arabidopsis; type: in vivo, Arabidopsis thaliana; details: Pyridyloxyacetic auxins
Description: (§1) The ability of AAD-12 (v1) to provide resistance to other aryloxyalkanoate auxin herbicides in transgenic Arabidopsis was determined by foliar application of various substrates. T2 generation Arabidopsis seed was stratified, and sown into selection trays much like that of Arabidopsis (Example 6.4). A transformed-control line containing PAT and the insect resistance gene Cry1F was planted in a similar manner. Seedlings were transferred to individual 3-inch pots in the greenhouse. All plants were sprayed with the use of a track sprayer set at 187 L/ha. The plants were sprayed with a range of pyridyloxyacetate herbicides: 280-2240 g ae/ha triclopyr (Garlon 3A, Dow AgroSciences) and 280-2240 g ae/ha fluroxypyr (Starane, Dow AgroSciences); and the 2,4-D metabolite resulting from AAD-12 activity, 2,4-dichlorophenol (DCP, Sigma) (at a molar equivalent to 280-2240 g ac/ha of 2,4-D, technical grade DCP was used). All applications were formulated in water. Each treatment was replicated 3-4 times. Plants were evaluated at 3 and 14 days after treatment.

[5] = tested on: Pat/Cry1f-Control Arabidopsis; assay: Foliar-applied auxinic herbicides on transformed control Arabidopsis; type: in vivo, Arabidopsis thaliana; details: Pyridyloxyacetic auxins
Description: as §1

AAD-12 (v2) [6] = biological target: T1, AAD-12 (v2); assay: Chloropyridinol detection assay (absorbance at 325 nm); type: biochemical
Excerpt: AAD-12 action on potential substrates such as the herbicide triclopyr containing a substituted pyridine (rather than benzene rings) will release a pyridinol on cleavage of the aryloxyalkanoate bond. Pyridinols were not detected using the aminoantipyrine/ferricyanide phenol detection described in the preceding section. […] This was used to create a continuous microplate-based spectrophotometric assay.
All five pyridyloxyalkanoates were cleaved to release pyridinols by AAD-12 (v2). The rates for the oxypropionate substrates 116844 and 91767 were somewhat faster than those for the corresponding acetates (triclopyr and 93833 respectively) indicating a preference of AAD-12 (v2) for oxypropionate over oxyacetate side chains.

[7] = read-out: Substrate inhibition at 2 mM

Structure (SMILES)	activity of AAD-12 (v2) on substrate (absorbance at 510 nm, FIG. 3) (AAD-12 (v2) [2])	Ave % Injury 14DAT ([4]; 280 g ae/ha foliar)	Ave % Injury 14DAT ([4]; 560 g ae/ha foliar)	Ave % Injury 14DAT ([4]; 1120 g ae/ha foliar)	Ave % Injury 14DAT ([4]; 2240 g ae/ha foliar)	Ave % Injury 14DAT ([5]; 280 g ae/ha foliar)	Ave % Injury 14DAT ([5]; 560 g ae/ha foliar)	Ave % Injury 14DAT ([5]; 1120 g ae/ha foliar)	Ave % Injury 14DAT ([5]; 2240 g ae/ha foliar)	other results
CNC.O=C(O)COc1ccc(Cl)cc1Cl [2,4-D DMA]	–	–	–	–	–	–	–	–	–	Average % Injury 16DAT [1]: 19%
O=C(O)COc1ccc(Cl)cc1Cl [2,4-D, 2,4-dichlorophenoxyacetic acid]	equivalent to that on (S)-dichlorprop	–	–	–	–	–	–	–	–	inhibition at 2000 µM (AAD-12 (v2) [2]; [7]): 55%; effect on cotton callus generation and growth ([3]; highest concentration (20 uM)): inhibitory; Average % injury 14 DAT (T1 AAD-12 (v1) tobacco; 2240 g ae/ha 2,4-D): 0%; Average % injury 14 DAT (T1 AAD-12 (v1) tobacco; 8960 g ae/ha 2,4-D): 0%; Average % injury 14 DAT (T1 AAD-12 (v1) tobacco; 35840 g ae/ha 2,4-D): 4%
C[C@@H](Oc1ccc(Cl)cc1Cl)C(=O)O [(R)-dichlorprop, R-2,4-dichlorophenoxypropionic acid]	minimal activity	–	–	–	–	–	–	–	–	callus induction of cotyledonary segments ([3]; concentrations tested up to 20 uM): not effective
Nc1c(Cl)c(F)nc(OCC(=O)O)c1Cl [Fluroxypyr]	–	0%	2%	3%	5%	75* %	75* %	75* %	75* %	–
O=C(O)COc1nc(Cl)c(Cl)cc1Cl [triclopyr]	–	0%	3%	0%	3%	52%	58%	75* %	75* %	Rate relative to triclopyr (AAD-12 (v2) [6]; 6.8 μg AAD-12 (v2), 1 mM substrate): 1; Rate (mAU/min) (AAD-12 (v2) [6]; 6.8 μg AAD-12 (v2), 1 mM substrate, 325 nm, background rate 1.4 mAU/min subtracted): 97 mAU/min; inhibition at 2000 µM (AAD-12 (v2) [6]; [7]): 0%; rate of AAD-12 (v2) cleavage relative to that of 2,4-D (AAD-12 (v2) [6]; under maximal velocity conditions): ~5%; substrate inhibition (AAD-12 (v2) [6]; up to 2 mM): No substrate inhibition
